According to patent US12691112B2, “FGFR tyrosine kinase inhibitors for the treatment of urothelial carcinoma” (Janssen Pharmaceutica NV, priority 2019, dated 2026):
Where “and” joins values, the source holds several entries; their conditions need not be identical. Equal entries are not always repeated.

How the values were obtained:
[1] = system: metastatic or surgically unresectable urothelial cancer harboring select FGFR genetic alterations; assay: Phase 2 study NCT02365597: overall survival (Kaplan-Meier); assay type: in vivo, human
Method: The term “overall survival” is defined as the time from first dose to the date of death. Data for patients who are alive or have unknown status is censored at the last date on which the patient is known to be alive.
(§1) Patients were contacted every 12 weeks for survival assessment.
(§2) The study was designed to enroll 180 patients with specified FGFR alterations. Of these, ≥88 were required in the selected regimen. […] Responses were assessed by investigators and an independent radiological review committee. Progression-free survival and overall survival were estimated using Kaplan-Meier product limit method. Data from patients who were progression free and alive or with unknown status were censored at last tumor assessment. Efficacy end points were analysed at primary analysis cut-off.

serum phosphate = assay: Pharmacodynamics: serum phosphate; assay type: in vivo, human; settings: consequence of FGFR inhibition
Source text: To manage phosphate elevation, phosphate binders were permitted. Avoid concomitant use with agents that can alter serum phosphate levels before the initial dose increase period based on serum phosphate levels.

[2] = human, in vivo
[3] = system: metastatic or surgically unresectable urothelial cancer harboring select FGFR genetic alterations; assay: Phase 2 study NCT02365597: tumor response per independent radiographic review committee (BIRC); assay type: in vivo, human
Method: as §1, §2

[4] = FGFR fusions (excluding mutations), 6 mg QD
[5] = FGFR fusions (excluding mutations), 8 mg QD
[6] = FGFR fusions (excluding mutations), 10 mg 7 on/7 off
[7] = FGFR fusions (excluding mutations), Total
[8] = FGFR mutations (excluding fusions), 6 mg QD
[9] = FGFR mutations (excluding fusions), 8 mg QD
[10] = FGFR mutations (excluding fusions), 10 mg 7 on/7 off
[11] = FGFR mutations (excluding fusions), Total
[12] = FGFR mutations and fusions, 6 mg QD
[13] = FGFR mutations and fusions, 10 mg 7 on/7 off
[14] = FGFR mutations and fusions, Total
[15] = Regimen 3, 8 mg continuous (n=99)
[16] = Regimen 3, chemotherapy-refractory patients, N = 87

COc1cc(OC)cc(N(CCNC(C)C)c2ccc3ncc(-c4cnn(C)c4)nc3c2)c1 [erdafitinib, N-(3,5-dimethoxy-phenyl)-N′-(1-methylethyl)-N-[3-(1-methyl-1H-pyrazol-4-yl)quinoxalin-6-yl]ethane-1,2-diamine]
6-month overall survival rate (95% CI) [1, 4]: 0.80 (0.41, 0.95)
12-month overall survival rate (95% CI) [1, 4]: 0.46 (0.14, 0.73)
18-month overall survival rate (95% CI) [1, 4]: 0.46 (0.14, 0.73)
Overall survival, Median (95% CI) [1, 4]: 9.33 (0.46, NE) months
Overall survival, Q1 [1, 4]: 7.92 months
Overall survival, Q3 [1, 4]: 18.96 months
6-month overall survival rate (95% CI) [1, 5]: 0.77 (0.54, 0.90)
12-month overall survival rate (95% CI) [1, 5]: 0.46 (0.24, 0.66)
Overall survival, Median (95% CI) [1, 5]: 10.32 (6.05, NE) months
Overall survival, Q1 [1, 5]: 6.05 months
Overall survival, Q3 [1, 5]: 14.03 months
6-month overall survival rate (95% CI) [1, 6]: 1.00 (1.00, 1.00)
12-month overall survival rate (95% CI) [1, 6]: 0.50 (0.01, 0.91)
18-month overall survival rate (95% CI) [1, 6]: 0 (NE, NE)
24-month overall survival rate (95% CI) [1, 6]: 0 (NE, NE)
Overall survival, Median (95% CI) [1, 6]: 10.37 (7.72, 13.01) months
Overall survival, Q1 [1, 6]: 7.72 months
Overall survival, Q3 [1, 6]: 13.01 months
6-month overall survival rate (95% CI) [1, 7]: 0.80 (0.62, 0.90)
12-month overall survival rate (95% CI) [1, 7]: 0.46 (0.28, 0.62)
18-month overall survival rate (95% CI) [1, 7]: 0.31 (0.12, 0.52)
Overall survival, Median (95% CI) [1, 7]: 9.33 (7.72, 18.96) months
Overall survival, Q1 [1, 7]: 6.97 months
Overall survival, Q3 [1, 7]: 18.96 months
6-month overall survival rate (95% CI) [1, 8]: 0.68 (0.54, 0.79)
12-month overall survival rate (95% CI) [1, 8]: 0.30 (0.18, 0.43)
18-month overall survival rate (95% CI) [1, 8]: 0.21 (0.11, 0.33)
Overall survival, Median (95% CI) [1, 8]: 8.31 (6.41, 9.63) months
Overall survival, Q1 [1, 8]: 5.13 months
Overall survival, Q3 [1, 8]: 14.82 months
6-month overall survival rate (95% CI) [1, 9]: 0.74 (0.61, 0.83)
12-month overall survival rate (95% CI) [1, 9]: 0.54 (0.38, 0.68)
Overall survival, Median (95% CI) [1, 9]: 12.02 (8.64, NE) months
Overall survival, Q1 [1, 9]: 5.98, NE months
6-month overall survival rate (95% CI) [1, 10]: 0.70 (0.47, 0.84)
12-month overall survival rate (95% CI) [1, 10]: 0.31 (0.14, 0.50)
18-month overall survival rate (95% CI) [1, 10]: 0.26 (0.11, 0.45)
24-month overall survival rate (95% CI) [1, 10]: 0.22 (0.08, 0.40)
Overall survival, Median (95% CI) [1, 10]: 7.39 (5.78, 10.71) months
Overall survival, Q1 [1, 10]: 5.55 months
Overall survival, Q3 [1, 10]: 18.76 months
6-month overall survival rate (95% CI) [1, 11]: 0.71 (0.63, 0.78)
12-month overall survival rate (95% CI) [1, 11]: 0.39 (0.30, 0.48)
18-month overall survival rate (95% CI) [1, 11]: 0.29 (0.20, 0.39)
24-month overall survival rate (95% CI) [1, 11]: 0.24 (0.15, 0.35)
Overall survival, Median (95% CI) [1, 11]: 9.10 (7.46, 11.86) months
Overall survival, Q1 [1, 11]: 5.49 months
Overall survival, Q3 [1, 11]: 18.76 months
6-month overall survival rate (95% CI) [1, 12]: 0.75 (0.13, 0.96)
12-month overall survival rate (95% CI) [1, 12]: 0.75 (0.13, 0.96)
18-month overall survival rate (95% CI) [1, 12]: 0.38 (0.01, 0.81)
Overall survival, Median (95% CI) [1, 12]: 12.65 (0.39, NE) months
Overall survival, Q1 [1, 12]: 6.52, NE months
6-month overall survival rate (95% CI) [1, 13]: 0.67 (0.05, 0.95)
12-month overall survival rate (95% CI) [1, 13]: 0 (NE, NE)
18-month overall survival rate (95% CI) [1, 13]: 0 (NE, NE)
24-month overall survival rate (95% CI) [1, 13]: 0 (NE, NE)
Overall survival, Median (95% CI) [1, 13]: 6.21 (3.98, 9.10) months
Overall survival, Q1 [1, 13]: 3.98 months
Overall survival, Q3 [1, 13]: 9.10 months
6-month overall survival rate (95% CI) [1, 14]: 0.71 (0.26, 0.92)
12-month overall survival rate (95% CI) [1, 14]: 0.43 (0.10, 0.73)
18-month overall survival rate (95% CI) [1, 14]: 0.21 (0.01, 0.59)
Overall survival, Median (95% CI) [1, 14]: 9.10 (0.39, NE) months
Overall survival, Q1 [1, 14]: 3.98 months
Overall survival, Q3 [1, 14]: 12.65 months
Median overall survival (95% CI) ([1]; Regimen 1, 10 mg intermittent): 7.5 (6.0 to 10.7) months
overall survival rate at 12 months ([1]; Regimen 1, 10 mg intermittent): 31%
Median overall survival (95% CI) ([1]; Regimen 2, 6 mg continuous): 8.6 (6.5 to 9.7) months
overall survival rate at 12 months ([1]; Regimen 2, 6 mg continuous): 33%
Survival rate at 12 months ([1]; Regimen 3, 8 mg continuous): 55%
median overall survival ([1]; Regimen 3, 8 mg continuous): 13.8 months
effect on serum phosphate level (serum phosphate): increased serum phosphate level
circulating metabolites in plasma [2]: no circulating metabolites
exposure (Cmax and AUC) versus dose [2]: increased proportionally
mean total apparent clearance (CL/F) [2]: 0.362 L/h
pharmacokinetics in specific populations [2]: No clinically meaningful trends
time to steady state [2]: 2 weeks
Complete response rate per independent radiographic review committee [3, 15]: 3 (3.0) %
Objective response rate per independent radiographic review committee [3, 15]: 34.3% and 34 (34.3) %
Partial response per independent radiographic review committee [3, 15]: 31 (31.3) %
Complete response (CR), BIRC assessment [3, 16]: 2.3%
Median DoR (95% CI), BIRC assessment [3, 16]: 5.4 (4.2, 6.9) months
ORR (95% CI), BIRC assessment [3, 16]: 32.2% and 32.2 (22.4, 42.0) %
Partial response (PR), BIRC assessment [3, 16]: 29.9%
ORR (95% CI), BIRC assessment ([3]; Regimen 3, chemotherapy-refractory, FGFR3 fusion, N = 18): 11.1 (0, 25.6) %
